The record followed here is paper PMC7269146, “Jingzhaotoxin-X, a gating modifier of Kv4.2 and Kv4.3 potassium channels purified from the venom of the Chinese tarantula Chilobrachys jingzhao” (The Journal of Venomous Animals and Toxins Including …, 2020).

The assay has as its target T1, Kv4.3 (Rattus norvegicus, UniProt Q62897).
T1 construct: expressed in transfected cells; host or cells: HEK293t
T1 sequence (Q62897 1-655): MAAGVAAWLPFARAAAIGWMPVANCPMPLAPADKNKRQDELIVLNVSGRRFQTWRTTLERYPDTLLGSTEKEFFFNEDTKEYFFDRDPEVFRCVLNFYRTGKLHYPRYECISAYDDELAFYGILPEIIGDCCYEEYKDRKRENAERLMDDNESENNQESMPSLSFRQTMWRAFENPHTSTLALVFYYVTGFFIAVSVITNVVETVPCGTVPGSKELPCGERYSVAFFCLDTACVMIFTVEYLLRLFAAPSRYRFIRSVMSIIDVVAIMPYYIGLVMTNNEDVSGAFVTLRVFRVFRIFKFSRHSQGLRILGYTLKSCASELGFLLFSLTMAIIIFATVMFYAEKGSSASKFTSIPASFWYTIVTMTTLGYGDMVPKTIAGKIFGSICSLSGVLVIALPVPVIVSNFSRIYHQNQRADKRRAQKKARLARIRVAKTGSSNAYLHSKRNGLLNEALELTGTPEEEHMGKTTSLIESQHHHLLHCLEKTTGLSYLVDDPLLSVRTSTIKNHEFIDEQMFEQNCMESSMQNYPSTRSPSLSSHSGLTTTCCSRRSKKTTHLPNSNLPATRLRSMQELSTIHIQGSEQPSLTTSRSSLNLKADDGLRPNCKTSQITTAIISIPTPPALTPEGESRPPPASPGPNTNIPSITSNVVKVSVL
In words: microelectrode voltage-clamp, Xenopus laevis oocytes, Kv4.3. Format: cell-based. Particulars: +20 mV from -90 mV, n = 5, read-out: inhibition of Kv4.3 current. An excerpt: Rat cDNA genes encoding Kv4.2 (Accession: NM_031730.2) and Kv4.3 (Accession: AB003587.1) were subcloned to vector pcDNA3.1. In addition, human cDNA genes encoding Nav1.7 (Accession: DQ857292.1) and Nav1.5 (Accession: AB158469.2) were subcloned to vectors pcDNA3.1-mod and pcDNA3.1, separately. Then, Kv4.2, Kv4.3, Nav1.5 and Nav1.7 constructs were transiently transfected into the human embryonic kidney 293t (HEK293t) cells using lipofectamine 2000 (Invitrogen, USA) in accordance with manufacturer protocols. Thereafter, HEK293 cells were inoculated within Dulbecco’s modified Eagle’s medium (DMEM) containing 10% fetal bovine serum (FBS) at 5% CO2 and 37°C. The Kv4.3 channel and the Kv4.2 counterpart were then transfected in the absence of β subunit. Subsequently, cells were incubated with a DNA-lipofectamine mixture (one reporter plasmid for green fluorescence protein and channel constructs) for 4-6 h, and were washed with the fresh medium.
Briefly, plasmids were linearized, and transcription was carried out according to the standardized protocol. Afterwards, the capped cRNAs that encoded the related ion channels were prepared. […]

Where a SMILES comes first, the peptide text is derived from it. Bridges are numbered along the chain shown (N, C = ends).

In general, inhibition refers to the relative decrease from the control value, in per cent. With `CC(C)C[C@@H]1NC(=O)[C@H](CCCCN)NC(=O)[C@H](Cc2ccc(O)cc2)NC(=O)[C@@H]2CSSC[C@@H]3NC(=O)[C@H](Cc4ccc(O)cc4)NC(=O)[C@H](Cc4ccccc4)NC(=O)CNC(=O)[C@H](C)NC(=O)[C@H](CSSC[C@H](NC(=O)[C@@H](N)CC(C)C)C(=O)N[C@@H](CO)C(=O)N[C@@H](CCCNC(=N)N)C(=O)N[C@@H](CCC(=O)O)C(=O)NCC(=O)N[C@@H](CCC(=O)O)C(=O)N[C@@H](Cc4ccccc4)C(=O)N2)NC(=O)[C@H](CSSC[C@@H](C(=O)N[C@@H](Cc2ccc(O)cc2)C(=O)N[C@@H](CCCNC(=N)N)C(=O)N[C@@H](CC(N)=O)C(=O)O)NC(=O)[C@H](Cc2c[nH]cn2)NC(=O)[C@H](CC(C)C)NC(=O)[C@H](C(C)C)NC(=O)[C@H](Cc2ccccc2)NC(=O)[C@H](C)NC(=O)[C@H](CCCCN)NC3=O)NC(=O)[C@H](CCCCN)NC(=O)[C@H](CCCNC(=N)N)NC1=O` [JZTX-X, Jingzhaotoxin-X] (H-LCSREGEFCYKLRKCCAGFYCKAFVLHCYRN-OH; disulfide 2-16, 9-21, 15-28; N-terminus assumed), the inhibition at 1 µM turned out to be 72.4 ± 4.8%.
